{"source": "patent US9546173B2", "about": "(Novartis AG, priority 2012, dated 2017)", "format_in_all_cases": "biochemical", "key": {"[1]": {"molecular_target": "RSK2 (Homo sapiens (Human), UniProt P51812)", "sequence (P51812 whole entry, species assumed)": "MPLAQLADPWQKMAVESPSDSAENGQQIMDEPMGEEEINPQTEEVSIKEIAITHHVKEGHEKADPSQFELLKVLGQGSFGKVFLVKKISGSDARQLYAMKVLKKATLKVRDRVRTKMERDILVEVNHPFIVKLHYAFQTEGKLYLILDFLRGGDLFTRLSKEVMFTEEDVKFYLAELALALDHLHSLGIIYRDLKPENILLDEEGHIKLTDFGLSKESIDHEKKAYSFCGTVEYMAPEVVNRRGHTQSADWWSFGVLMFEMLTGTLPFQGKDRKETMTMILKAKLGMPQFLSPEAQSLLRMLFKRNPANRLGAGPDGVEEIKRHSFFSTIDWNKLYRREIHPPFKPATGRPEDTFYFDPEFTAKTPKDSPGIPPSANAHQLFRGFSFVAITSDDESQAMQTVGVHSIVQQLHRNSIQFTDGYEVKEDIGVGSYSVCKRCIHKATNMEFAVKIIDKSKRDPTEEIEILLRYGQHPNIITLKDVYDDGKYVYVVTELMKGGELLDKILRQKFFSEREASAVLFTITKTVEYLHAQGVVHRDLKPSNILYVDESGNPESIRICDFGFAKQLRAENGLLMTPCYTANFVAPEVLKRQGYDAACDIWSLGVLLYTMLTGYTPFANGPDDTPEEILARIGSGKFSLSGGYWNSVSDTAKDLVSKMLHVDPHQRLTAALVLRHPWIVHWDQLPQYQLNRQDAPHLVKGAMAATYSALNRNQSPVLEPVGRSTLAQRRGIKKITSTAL", "test": "In vitro inhibition of RSK2", "settings": "in vitro activity on RSK2; where multiple measurements were made, each value is reported", "description": "(§1) The following Table 3 lists compounds that were tested for inhibition of RSK; the IC50 values are in micromolar units, and refer to inhibition of RSK1 and RSK2, respectively. Where multiple measurements were made, each value is reported."}, "[2]": {"molecular_target": "activated ERK2 (Homo sapiens (Human), UniProt P28482)", "sequence (P28482 whole entry)": "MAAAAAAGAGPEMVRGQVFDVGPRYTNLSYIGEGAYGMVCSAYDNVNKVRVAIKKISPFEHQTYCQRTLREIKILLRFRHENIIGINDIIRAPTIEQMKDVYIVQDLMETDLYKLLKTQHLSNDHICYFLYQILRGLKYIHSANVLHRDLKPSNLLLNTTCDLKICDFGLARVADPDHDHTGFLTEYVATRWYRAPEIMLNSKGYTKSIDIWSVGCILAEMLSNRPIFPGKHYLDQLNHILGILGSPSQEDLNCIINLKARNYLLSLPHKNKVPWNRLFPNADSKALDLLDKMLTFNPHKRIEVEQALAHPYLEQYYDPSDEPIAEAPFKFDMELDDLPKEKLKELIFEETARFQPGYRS", "test": "Activated ERK2 kinase assay (AlphaScreen, ERKtide peptide phosphorylation)", "settings": "35 μM ATP, 30 min preincubation, read-out: ERK2 IC50"}, "[3]": {"molecular_target": "RSK1 (Homo sapiens (Human), UniProt Q15418)", "sequence (Q15418 whole entry, species assumed)": "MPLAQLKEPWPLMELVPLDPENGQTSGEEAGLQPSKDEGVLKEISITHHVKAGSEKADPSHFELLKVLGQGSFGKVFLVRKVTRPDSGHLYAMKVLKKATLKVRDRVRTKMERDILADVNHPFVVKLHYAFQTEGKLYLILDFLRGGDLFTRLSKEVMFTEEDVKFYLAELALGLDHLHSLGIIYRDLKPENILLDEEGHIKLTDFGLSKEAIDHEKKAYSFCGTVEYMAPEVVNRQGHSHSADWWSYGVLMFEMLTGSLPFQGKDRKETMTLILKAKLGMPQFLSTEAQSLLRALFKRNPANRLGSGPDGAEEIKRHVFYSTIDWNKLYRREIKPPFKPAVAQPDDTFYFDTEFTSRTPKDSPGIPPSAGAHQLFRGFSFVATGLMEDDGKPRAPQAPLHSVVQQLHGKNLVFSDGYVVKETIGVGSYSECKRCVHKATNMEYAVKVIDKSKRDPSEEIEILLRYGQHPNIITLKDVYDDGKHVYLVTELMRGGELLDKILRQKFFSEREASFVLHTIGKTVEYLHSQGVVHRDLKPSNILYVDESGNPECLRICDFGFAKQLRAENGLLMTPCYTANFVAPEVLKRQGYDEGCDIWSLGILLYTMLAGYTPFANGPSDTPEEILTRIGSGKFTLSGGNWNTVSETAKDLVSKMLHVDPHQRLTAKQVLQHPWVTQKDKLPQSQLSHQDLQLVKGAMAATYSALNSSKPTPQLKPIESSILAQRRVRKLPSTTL", "test": "In vitro inhibition of RSK1", "settings": "in vitro activity on RSK1", "description": "as §1"}, "[4]": {"settings": "[…] ERK2, 200 nM ERKtide peptide"}}, "note": "Read-outs that look alike come from different tables or passages of the source."}
{"smiles": "CN1CCN(C(=O)N2Cc3nc(Nc4ccccc4)ncc3C2(C)C)CC1", "note": "[compound 151, (5,5-dimethyl-2-(phenylamino)-5H-pyrrolo[3,4-d]pyrimidin-6(7H)-yl)(4-methylpiperazin-1-yl)methanone]", "values": [{"measurement": "IC50", "setting": "[1]", "result": 1.17, "unit": "µM"}, {"measurement": "IC50", "setting": "[2]; [4]", "result": 5.57, "unit": "µM"}, {"measurement": "IC50", "setting": "[3]", "result": 1.61, "unit": "µM"}]}
{"smiles": "CN1CC(NC(=O)N2Cc3nc(Nc4ccccc4)ncc3C2(C)C)C1", "note": "[compound 153, 5,5-dimethyl-N-(1-methylazetidin-3-yl)-2-(phenylamino)-5H-pyrrolo[3,4-d]pyrimidine-6(7H)-carboxamide]", "values": [{"measurement": "IC50", "setting": "[1]", "result": 1.37, "unit": "µM"}, {"measurement": "IC50", "setting": "[2]; [4]", "result": 125, "unit": "µM"}]}
{"smiles": "CN1CCN(C(=O)N2Cc3nc(Nc4ccccc4)ncc3C2(C)C)C(Cc2ccccc2)C1", "note": "(centres unmarked) [compound 154, (2-benzyl-4-methylpiperazin-1-yl)(5,5-dimethyl-2-(phenylamino)-5H-pyrrolo[3,4-d]pyrimidin-6(7H)-yl)methanone]", "values": [{"measurement": "IC50", "setting": "[1]", "result": 1.64, "unit": "µM"}, {"measurement": "IC50", "setting": "[2]; [4]", "result": 3.03, "unit": "µM"}]}
{"smiles": "CC1(C)c2cnc(Nc3ccccc3)nc2CN1C(=O)NC1CCN(Cc2ccccc2)C1", "note": "(centres unmarked) [compound 155, N-(1-benzylpyrrolidin-3-yl)-5,5-dimethyl-2-(phenylamino)-5H-pyrrolo[3,4-d]pyrimidine-6(7H)-carboxamide]", "values": [{"measurement": "IC50", "setting": "[1]", "result": 1.91, "unit": "µM"}, {"measurement": "IC50", "setting": "[2]; [4]", "result": 0.969, "unit": "µM"}]}
{"smiles": "CN(C)CCNC(=O)N1Cc2nc(Nc3ccccc3)ncc2C1(C)C", "note": "[compound 157, N-(2-(dimethylamino)ethyl)-5,5-dimethyl-2-(phenylamino)-5H-pyrrolo[3,4-d]pyrimidine-6(7H)-carboxamide]", "values": [{"measurement": "IC50", "setting": "[1]", "result": 3.85, "unit": "µM"}, {"measurement": "IC50", "setting": "[2]; [4]", "result": 25, "unit": "µM"}]}
{"smiles": "CN1CCC(NC(=O)N2Cc3nc(Nc4ccccc4)ncc3C2(C)C)C1", "note": "(centres unmarked) [compound 158, 5,5-dimethyl-N-(1-methylpyrrolidin-3-yl)-2-(phenylamino)-5H-pyrrolo[3,4-d]pyrimidine-6(7H)-carboxamide]", "values": [{"measurement": "IC50", "setting": "[1]", "result": 3.88, "unit": "µM"}, {"measurement": "IC50", "setting": "[2]; [4]", "result": 41.1, "unit": "µM"}]}
{"smiles": "CC1(C)c2cnc(Nc3ccccc3)nc2CN1C(=O)NCC1CCN(Cc2ccccc2)C1", "note": "(centres unmarked) [compound 159, N-((1-benzylpyrrolidin-3-yl)methyl)-5,5-dimethyl-2-(phenylamino)-5H-pyrrolo[3,4-d]pyrimidine-6(7H)-carboxamide]", "values": [{"measurement": "IC50", "setting": "[1]", "result": 5.65, "unit": "µM"}, {"measurement": "IC50", "setting": "[2]; [4]", "result": 19.6, "unit": "µM"}]}
{"smiles": "Cn1cncc1CNC(=O)N1Cc2nc(Nc3ccccc3)ncc2C1(C)C", "note": "[compound 160, 5,5-dimethyl-N-((1-methyl-1H-imidazol-5-yl)methyl)-2-(phenylamino)-5H-pyrrolo[3,4-d]pyrimidine-6(7H)-carboxamide]", "values": [{"measurement": "IC50", "setting": "[1]", "result": 5.65, "unit": "µM"}, {"measurement": "IC50", "setting": "[2]; [4]", "result": 36.6, "unit": "µM"}]}
{"smiles": "CN(C)[C@@H]1CCCC[C@H]1NC(=O)N1Cc2nc(Nc3ccccc3)ncc2C1(C)C", "note": "[compound 161, N-((1R,2R)-2-(dimethylamino)cyclohexyl)-5,5-dimethyl-2-(phenylamino)-5H-pyrrolo[3,4-d]pyrimidine-6(7H)-carboxamide]", "values": [{"measurement": "IC50", "setting": "[1]", "result": 8.2, "unit": "µM"}, {"measurement": "IC50", "setting": "[2]; [4]", "result": 125, "unit": "µM"}]}
{"smiles": "CC1(C)c2cnc(Nc3ccccc3)nc2CN1C(=O)NCc1cocn1", "note": "[compound 162, 5,5-dimethyl-N-(oxazol-4-ylmethyl)-2-(phenylamino)-5H-pyrrolo[3,4-d]pyrimidine-6(7H)-carboxamide]", "values": [{"measurement": "IC50", "setting": "[1]", "result": 8.21, "unit": "µM"}, {"measurement": "IC50", "setting": "[2]; [4]", "result": 16.2, "unit": "µM"}]}
{"smiles": "CN1CCC(NC(=O)N2Cc3nc(Nc4ccccc4)ncc3C2(C)C)CC1", "note": "[compound 163, 5,5-dimethyl-N-(1-methylpiperidin-4-yl)-2-(phenylamino)-5H-pyrrolo[3,4-d]pyrimidine-6(7H)-carboxamide]", "values": [{"measurement": "IC50", "setting": "[1]", "result": 14, "unit": "µM"}, {"measurement": "IC50", "setting": "[2]; [4]", "result": 83.5, "unit": "µM"}]}
{"smiles": "CC1(C)c2cnc(Nc3ccccc3)nc2CN1C(=O)NCCO", "note": "[compound 164, N-(2-hydroxyethyl)-5,5-dimethyl-2-(phenylamino)-5H-pyrrolo[3,4-d]pyrimidine-6(7H)-carboxamide]", "values": [{"measurement": "IC50", "setting": "[1]", "result": 14, "unit": "µM"}, {"measurement": "IC50", "setting": "[2]; [4]", "result": 18.4, "unit": "µM"}]}
{"smiles": "CC1(C)c2cnc(Nc3ccccc3)nc2CN1C(=O)NC1CCOCC1", "note": "[compound 165, 5,5-dimethyl-2-(phenylamino)-N-(tetrahydro-2H-pyran-4-yl)-5H-pyrrolo[3,4-d]pyrimidine-6(7H)-carboxamide]", "values": [{"measurement": "IC50", "setting": "[1]", "result": 15.2, "unit": "µM"}, {"measurement": "IC50", "setting": "[2]; 0.25 nM ERK2, 200 nM ERKtide peptide", "result": 18.9, "unit": "µM"}]}
{"smiles": "CN(C)Cc1ccccc1CNC(=O)N1Cc2nc(Nc3ccccc3)ncc2C1(C)C", "note": "[compound 166, N-(2-((dimethylamino)methyl)benzyl)-5,5-dimethyl-2-(phenylamino)-5H-pyrrolo[3,4-d]pyrimidine-6(7H)-carboxamide]", "values": [{"measurement": "IC50", "setting": "[1]", "result": 16.3, "unit": "µM"}, {"measurement": "IC50", "setting": "[2]; [4]", "result": 44.8, "unit": "µM"}]}
